From patent US20120053235A1, “Dihydromyricetin as an IKK-beta inhibitor used for treatment of arthritis, cancer and autoimmune conditions, and other diseases or disorders” (HONG KONG BAPTIST UNIVERSITY, priority 2010, published 2012) come the findings set out here.

Experiment [1] relates to IL-2 production in human T-cell. Nature of the experiment: IL-2 ELISA of culture supernatants of stimulated T cells. Type of experiment: cell-based. Details: dose or concentration left out as unconfirmed. As to conditions: DMY; P/I or anti-OKT-3/anti-CD28 for 48 hours; FIGS. 3A and 3B. On the procedure:
The cells (1×10^5/well) were incubated in the presence or absence of DMY for 2 hours at the indicated concentrations, and then the cells were stimulated with P/I or anti-OKT-3/anti-CD28 for 48 hours. The cell-free culture supernatants were collected, and then the concentration of IL-2 in the supernatants was determined by ELISA method.
For orientation: In an ELISA, binding on a coated surface is turned into a signal by an enzyme label.

Experiment [2] has as its system NF-κB nuclear translocation in human T lymphocytes. Nature of the experiment: NF-κB nuclear translocation (p65 Western blot of nuclear proteins). Type of experiment: cell-based. The settings on record: pretreated 1 hour, 20 ng/ml PMA plus 1 μM ionomycin 120 minutes; FIG. 6A. The method, then: Human T lymphocytes (6×10^6/well) were pretreated with DMY for 1 hour, and subsequently stimulated with 20 ng/ml PMA plus 1 μM ionomycin for 120 minutes. The cells were then harvested and washed with PBS twice. The nuclear proteins of cells were prepared by using NucBuster™ Reagents (Novagen, USA). The washed cells were re-suspended using 60 μl NucBuster™ Reagent for […] of packed cells and processed twice by vortexing for 15 seconds, and followed by incubation on ice for 5 minutes and second vortexing for 15 seconds, and finally centrifuged at 16000 g for 5 minutes. The supernatants containing cytoplasmic protein were harvested, and then the cell pellets were re-suspended in 45 μl of NucBuster Extraction Reagent 2. The same vortexing, icing, and repeated vortexing procedures were repeated once to prepare the nuclear proteins of the cells.
Protein concentrations were determined by using Bio-Rad Protein assay. Equal amounts of nuclear proteins or whole-cell lysates were analyzed by 10% SDS-PAGE. After electrophoresis, the proteins were electro-transferred to the nitrocellulose membranes. After proteins were transferred, the membranes were blocked by 5% dried milk for 60 minutes and then washed three times for 5 min in each washing interval with Tris Buffered Saline with Tween 20 (TBS-T). […]

Regarding `O=C1c2c(O)cc(O)cc2O[C@H](c2cc(O)c(O)c(O)c2)[C@H]1O` [DMY, dihydromyricetin], the “production of IL-2” value in experiment [1] was “suppress the production of IL-2”. In experiment [2], the NF-κB nuclear translocation result is on record as “significantly suppressed”.
